What all share (format): cell-based
One series addresses T1, human MRGPRX2 (Homo sapiens, UniProt Q96LB1).
T1 construct: expressed in transfected cells; host or cells: FlpIn TRex HEK293 (TRex-MRGPRX2-HEK), doxycycline-induced
T1 sequence (Q96LB1 1-330): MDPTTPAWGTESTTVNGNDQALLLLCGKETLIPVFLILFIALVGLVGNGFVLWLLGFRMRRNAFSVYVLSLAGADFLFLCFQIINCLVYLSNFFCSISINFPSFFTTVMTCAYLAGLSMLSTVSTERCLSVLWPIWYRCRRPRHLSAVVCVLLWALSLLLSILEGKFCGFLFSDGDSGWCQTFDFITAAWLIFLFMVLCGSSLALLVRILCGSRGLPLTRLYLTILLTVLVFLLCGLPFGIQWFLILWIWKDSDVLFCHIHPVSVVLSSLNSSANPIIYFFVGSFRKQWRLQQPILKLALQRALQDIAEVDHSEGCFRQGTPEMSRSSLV
The series is described as follows: MRGPRX2 Activity Assay (IP-1 HTRF, antagonist mode). The settings on record: FlpIn TRex-MRGPRX2-HEK293 cells; versus 1 μM Cortistatin-14 agonist; 30 minutes preincubation. The method in brief:
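Doxycycline-induced (100 ng/mL, 18-24 h) TRex HEK293 cells stably expressing human MRGPRX2, in HBSS/20 mM HEPES/0.1% BSA/10 mM LiCl. Compounds (top final 30 uM, 1% DMSO) preincubated 30 min, then agonist stimulation 1 h at 37° C without wash. IP-1 accumulation read by HTRF; IC50 from 4-parameter fit.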

The next series has as its target T2, hERG channel (Homo sapiens, UniProt Q12809).
T2 construct: host or cells: hERG-T-Rex 293 (HEK 293), doxycycline-induced
The series is described as follows: hERG Safety Evaluation by Manual Patch-Clamp System. Particulars: hERG-T-Rex 293 cells, whole cell patch-clamp at 35° C. How it is done:
A stable BIEK 293 cell line with inducible hERG channel expression (hERG-T-Rex 293, Invitrogen cat #K1236) was cultured in medium containing 85% DMVEM, 10% dialyzed FBS, 0.1 mM NEAA, 25 mM HEPES, 100 U/mL Penicillin-Streptomycin, 5 μg/mL Blasticidin and 400 μg/mL Geneticin. Before the assay, cells were induced with doxycycline at 1 μg/mL for 48 hours. On the experiment day, the induced cells were resuspended and plated onto coverslips at 5×10^5 cells/per 3.5 cm cell culture dish prior to use and cultured in medium without Blasticidin and Geneticin.
Electrophysiology recordings were performed in extracellular solution (ECS) containing (in mM): 132 NaCl, 4 KCl, 3 CaCl2), 0.5 MgCl2, 11.1 D-(+) glucose, and 10 HEPES (pH adjusted to 7.35 with NaOH, osmolarity 285-295 mOsm). Recording pipets contained (in mM) 10 NaCl, 10 KCl, 110 KF, 10 EGTA, and 10 HEPES (pH adjusted to 7.2 with KOH, osmolarity 285-295 mOsm).
Test and positive control (dofetilide) compounds were solubilized in 100% DMSO at 10 mM or 75 mM, respectively. Intermediate dilutions of compounds were prepared by serial dilution in 100% DMSO, after which working solutions were prepared in ECS (final DMSO concentration=0.1-1% v/v for test compounds, and 0.1% for dofetilide). […]
Whole cell recordings of voltage-clamped cells were performed at 35° C., with all working solutions heated to 34° C. in a water bath before administration. Current recordings were collected at 20 kHz with a 10 kHz filter and were compensated for capacitance. Cells were clamped at −60 mV, and leak current was tested at −80 mV for 500 ms. The hERG current was elicited by depolarizing at +30 mV for 4.8 seconds and then the voltage was taken back to −50 mV for 5.2 seconds to remove the inactivation and observe the deactivating tail current. Recordings were continued for 120 seconds to assess current stability. Only stable cells with recording parameters above threshold were used in compound administration experiments. Vehicle control was applied to cells to establish baseline. […] For dose response testing, test compound was applied to the cells cumulatively from low to high concentrations. Dofetilide at concentration of 450 nM was also applied to each cell post-hERG current measurement at the highest concentration of test compound as the internal low control for normalization of percentage inhibition. Dofetilide (5 doses) response was performed as positive hERG inhibition control for each batch of cells.
The following criteria were used to determine data acceptability: 1) Initial seal resistance>1 GΩ; 2) Leak currents<50% of the control peak tail currents at any time; 3) Normal test pulse current waveform (e.g., hERG peak tail) current amplitude greater than prepulse current amplitude and the peak tail amplitude>250 pA; 4) Membrane resistance Rm>500 MΩ; 5) Access resistance (Ra)<15 MΩ; 6) Apparent run-down of peak current<2.5% per min. Percent current inhibition was calculated as (1−(Peak tail currentcompound−Peak tail currentpositive control)/(Peak tail currentBlank vehicle−Peak tail currentpositive control))×100. PatchMaster software was used to extract the peak current from the original data. The dose response curve of test compounds was plotted with % inhibition against the concentration of test compounds using Graphpad Prism 8.0, and the data fit to a sigmoid dose-response curve with a variable slope.
(hERG is a cardiac potassium channel; its block is linked to QT prolongation.)

For series [1], the system named is LAD-2 cells. The series is described as follows: LAD2 Degranulation Assay (Protocol 1), β-hexosaminidase release. Particulars: Homo sapiens, 1 μM Cortistatin-14, 30 minute preincubation, top concentration 3 μM. How it is done:
LAD-2 cells were maintained at 37° C. with 5% CO2 and grown in complete StemPro-34 media supplemented with 1% L-Glutamate, 1% penicillin/streptomycin, and 250 ng/mL human SCF.
On the day of experiment, cells were collected by centrifugation and seeded in 384-well assay plates, at 4,000 cells per well in 10 μl freshly made assay buffer (10 mM HEPES, 130 mM NaCl, 5 mM KCl, 1.8 mM CaCl2), 1.0 mM MgCl2, 5.6 mM glucose, 0.1% BSA, pH=7.40). For dose-response assays, compounds solubilized in 100% DMSO at 30 mM were serially diluted (1:3) first in 100% DMSO, and 2 intermediate dilutions with assay buffer were used to establish a final top concentration of 3 μM (in assay plate). Final DMSO concentration was kept constant at 0.1% across plates for all assays. Cortistatin-14 at 30 mM stock concentration was solubilized in HBSS+0.1% BSA, stored at −20° C. in 5 μl aliquots and discarded after one freeze-thaw cycle. Final concentration of agonist used in both dose-response and single point assays was 1 μM, prepared in assay buffer.
Antagonist equilibrium was established with 30 minute preincubation, followed by no wash, direct addition, and stimulation of agonist for 30 minutes at 37° C. For detection of β-hexosaminidase activity, assay plates were centrifuged and 5 μl of cell-free supernatant from each assay well was transferred to a black-walled black-bottomed 384-well plate. Substrate solution (1 mM 4-Methylumbelliferyl N-acetyl-β-D-glucosaminide in citrate buffer, pH=4.5, 15 μl) was added to each well and plates were incubated for 1 hour at 37° C. The plate was read on an EnVision XCite plate reader for umbelliferone fluorescence intensity (λex=355 nm, λem=460 nm). Background-subtracted data was analyzed using either GraphPad Prism or a custom Python script to calculate IC50 using either Log[Antagonist] vs. response (4 parameter) nonlinear regression (dose-response assays).

In series [2] the test system is LAD-2 cells. The series is described as follows: LAD2 Degranulation Assay (Protocol 2), β-hexosaminidase release. The settings on record: Homo sapiens; for IC50: 0.5 μM Cortistatin-14, 2 h preincubation, cells without SCF 18-24 hours, top concentration 3 μM; for activity at 0.25 µM: single point 250 nM, 0.5 μM Cortistatin-14, % control β-hexosaminidase activity. The method in brief: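 After 18–24 h SCF withdrawal, 4,000 cells/well in HEPES buffer pH 7.40 got compound for 2 h (1:3 series from 3 μM top, or 250 nM single point; 0.1% DMSO), then 0.5 μM cortistatin-14 for 30 min at 37 °C. Supernatant β-hexosaminidase: 1 mM 4-MU-GlcNAc, pH 4.5, 1 h, 355/460 nm; 4-parameter IC50 or % control.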

T2 sequence (Q12809 whole entry): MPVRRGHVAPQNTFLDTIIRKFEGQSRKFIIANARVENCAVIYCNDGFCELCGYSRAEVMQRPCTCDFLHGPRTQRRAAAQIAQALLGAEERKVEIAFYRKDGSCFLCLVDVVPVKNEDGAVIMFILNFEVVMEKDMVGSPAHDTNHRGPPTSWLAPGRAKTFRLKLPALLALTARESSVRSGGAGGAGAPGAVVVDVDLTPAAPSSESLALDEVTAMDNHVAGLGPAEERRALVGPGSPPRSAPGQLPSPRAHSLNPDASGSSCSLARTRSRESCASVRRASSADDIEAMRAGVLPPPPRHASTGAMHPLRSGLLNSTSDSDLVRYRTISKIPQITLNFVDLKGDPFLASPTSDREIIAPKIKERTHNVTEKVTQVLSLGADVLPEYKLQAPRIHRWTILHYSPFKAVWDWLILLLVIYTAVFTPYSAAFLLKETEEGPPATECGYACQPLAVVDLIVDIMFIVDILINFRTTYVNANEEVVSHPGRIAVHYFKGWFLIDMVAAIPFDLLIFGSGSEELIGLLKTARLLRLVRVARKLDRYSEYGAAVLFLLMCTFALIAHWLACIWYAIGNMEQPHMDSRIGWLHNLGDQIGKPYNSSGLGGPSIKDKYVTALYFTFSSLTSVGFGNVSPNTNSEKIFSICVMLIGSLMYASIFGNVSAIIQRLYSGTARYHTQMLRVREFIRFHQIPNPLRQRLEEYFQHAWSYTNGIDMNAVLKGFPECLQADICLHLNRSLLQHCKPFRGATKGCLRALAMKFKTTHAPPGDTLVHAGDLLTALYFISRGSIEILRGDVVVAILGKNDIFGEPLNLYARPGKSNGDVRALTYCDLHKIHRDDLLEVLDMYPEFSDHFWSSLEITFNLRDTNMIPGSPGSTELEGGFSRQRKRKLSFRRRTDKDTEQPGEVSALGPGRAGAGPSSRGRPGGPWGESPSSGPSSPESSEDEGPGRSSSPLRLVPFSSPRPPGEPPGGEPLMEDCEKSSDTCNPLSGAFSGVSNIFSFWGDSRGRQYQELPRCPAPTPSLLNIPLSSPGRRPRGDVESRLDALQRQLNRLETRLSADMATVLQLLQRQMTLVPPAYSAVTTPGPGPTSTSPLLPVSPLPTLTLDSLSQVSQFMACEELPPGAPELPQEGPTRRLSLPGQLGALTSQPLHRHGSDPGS

One may read the IC50 as the concentration that inhibits the measured activity by half. `C[C@@H](C(=O)Nc1cn(Cc2ccc(F)cc2F)cn1)N1CCC(F)(F)[C@@H](c2cc[n+]([O-])cc2)C1` (single isomer, unassigned) [Compound 1]: the IC50 at human MRGPRX2 was 58 nM; with LAD-2 cells [1] it was 1940 nM. On hERG channel, the “hERG Inhibition (%) @ 1 μM” value is on record as 10%. Besides, the “hERG Inhibition (%) @ 20 μM” value at hERG channel is 35%.
In the same order, the values of `C[C@H](C(=O)Nc1cn(Cc2cc(F)cc(F)c2)cn1)N1CCC(F)(F)[C@@H](c2cc[n+]([O-])cc2)C1` (single isomer, unassigned) [Compound 5] are 9 nM, 14 nM, 3% and 35%.
As for `C[C@@H](C(=O)Nc1nc2cc3c(cc2s1)OCO3)N1CCC(F)(F)[C@@H](c2cc[n+]([O-])cc2)C1` (single isomer, unassigned) [Compound 11], the IC50 is 3.7 nM at human MRGPRX2 and 12 nM with LAD-2 cells [1]. The “hERG Inhibition (%) @ 1 μM” value at hERG channel was found to be 11%. Further, the “hERG Inhibition (%) @ 20 μM” value on hERG channel is 62%.
For `C[C@@H](C(=O)Nc1cn2c(n1)CC[C@@H]2c1cc(F)cc(F)c1)N1CCC(F)(F)[C@@H](c2cc[n+]([O-])cc2)C1` (single isomer, unassigned) [Compound 489], in the series on LAD-2 cells [2], the IC50 is 9.5 nM and the activity at 0.25 µM was 14%. The molecule also displayed an IC50 on human MRGPRX2 of 13 nM. In addition, at hERG channel, the “hERG Inhibition (%) @ 1 μM” value is on record as 12% and the “hERG Inhibition (%) @ 20 μM” value was found to be 47%.
In the same order, the values of `C[C@@H](C(=O)Nc1cn2c(n1)CC[C@H]2c1cc(F)cc(F)c1)N1CCC(F)(F)[C@@H](c2ccc(=O)[nH]c2)C1` (single isomer, unassigned) [Compound 494] are 6.9 nM, 13%, 20 nM, 9% and 54%.

The record behind these values is US20250122171A1, “Substituted Amine Compounds, Compositions and Methods of Use” (Deep Apple Therapeutics, Inc., priority 2023, published 2025).
